ChEMBL document CHEMBL3881527, “Multi-functional small molecules as anti-proliferative agents” (2008)
Calls of active or inactive are those of the source. No cut-off for these calls is given here.

Assays:
[1] = target: Platelet-derived growth factor receptor beta (Homo sapiens, UniProt P09619); experiment: Inhibition of N-terminal GST-His6-thrombin cleavage site-fused human PDGFRbeta (Arg561 to Leu1106 residues) assessed as decrease in biotinylated FLT3 phosphorylation at Tyr589 preincubated for 5 mins followed by substrate addition measured after 30 mins by DELFIA method
[2] = target: Mast/stem cell growth factor receptor Kit (Homo sapiens, UniProt P10721); experiment: Inhibition of human N-terminal GST-tagged human c-Kit (Thr544 to Val976 residues) expressed in baculovirus expression system assessed as decrease in biotinylated KDR phosphorylation at Tyr996 preincubated for 5 mins followed by substrate addition measured after 30 mins by DELFIA method
Chain of Mast/stem cell growth factor receptor Kit (P10721 whole entry): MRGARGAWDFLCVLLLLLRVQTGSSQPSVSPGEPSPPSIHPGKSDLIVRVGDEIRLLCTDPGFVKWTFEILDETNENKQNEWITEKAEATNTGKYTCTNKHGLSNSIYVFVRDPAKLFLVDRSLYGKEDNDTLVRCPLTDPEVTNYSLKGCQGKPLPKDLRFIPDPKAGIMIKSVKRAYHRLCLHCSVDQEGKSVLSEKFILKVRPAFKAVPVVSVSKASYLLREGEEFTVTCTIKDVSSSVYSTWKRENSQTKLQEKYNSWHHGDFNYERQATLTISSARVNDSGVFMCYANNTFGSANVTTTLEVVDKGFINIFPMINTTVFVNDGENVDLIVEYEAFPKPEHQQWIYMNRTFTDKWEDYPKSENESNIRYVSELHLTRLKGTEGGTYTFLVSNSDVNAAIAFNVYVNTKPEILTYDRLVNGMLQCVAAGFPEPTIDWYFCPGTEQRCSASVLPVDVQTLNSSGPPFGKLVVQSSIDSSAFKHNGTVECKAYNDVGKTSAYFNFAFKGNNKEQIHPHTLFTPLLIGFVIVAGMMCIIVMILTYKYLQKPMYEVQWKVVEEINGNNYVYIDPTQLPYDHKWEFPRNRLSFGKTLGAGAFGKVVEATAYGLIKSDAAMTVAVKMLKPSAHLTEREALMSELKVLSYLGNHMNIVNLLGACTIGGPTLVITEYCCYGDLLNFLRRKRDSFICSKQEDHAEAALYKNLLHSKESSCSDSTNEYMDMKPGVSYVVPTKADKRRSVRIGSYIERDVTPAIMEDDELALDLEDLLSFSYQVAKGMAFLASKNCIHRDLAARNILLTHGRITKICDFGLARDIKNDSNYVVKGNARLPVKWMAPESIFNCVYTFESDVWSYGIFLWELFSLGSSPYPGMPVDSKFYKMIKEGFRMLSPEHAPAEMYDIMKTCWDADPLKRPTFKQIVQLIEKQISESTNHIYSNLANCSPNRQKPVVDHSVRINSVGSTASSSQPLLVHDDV

[3] = target: Tyrosine-protein kinase ABL1 (Homo sapiens, UniProt P00519); experiment: Inhibition of human N-terminal GST-tagged human Abl1 (Pro118 to Ser553 residues) expressed in baculovirus expression system assessed as decrease in biotin signal transduction protein phosphorylation at Tyr160 preincubated for 5 mins followed by substrate addition measured after 30 mins by DELFIA method
Chain of Tyrosine-protein kinase ABL1 (P00519 whole entry): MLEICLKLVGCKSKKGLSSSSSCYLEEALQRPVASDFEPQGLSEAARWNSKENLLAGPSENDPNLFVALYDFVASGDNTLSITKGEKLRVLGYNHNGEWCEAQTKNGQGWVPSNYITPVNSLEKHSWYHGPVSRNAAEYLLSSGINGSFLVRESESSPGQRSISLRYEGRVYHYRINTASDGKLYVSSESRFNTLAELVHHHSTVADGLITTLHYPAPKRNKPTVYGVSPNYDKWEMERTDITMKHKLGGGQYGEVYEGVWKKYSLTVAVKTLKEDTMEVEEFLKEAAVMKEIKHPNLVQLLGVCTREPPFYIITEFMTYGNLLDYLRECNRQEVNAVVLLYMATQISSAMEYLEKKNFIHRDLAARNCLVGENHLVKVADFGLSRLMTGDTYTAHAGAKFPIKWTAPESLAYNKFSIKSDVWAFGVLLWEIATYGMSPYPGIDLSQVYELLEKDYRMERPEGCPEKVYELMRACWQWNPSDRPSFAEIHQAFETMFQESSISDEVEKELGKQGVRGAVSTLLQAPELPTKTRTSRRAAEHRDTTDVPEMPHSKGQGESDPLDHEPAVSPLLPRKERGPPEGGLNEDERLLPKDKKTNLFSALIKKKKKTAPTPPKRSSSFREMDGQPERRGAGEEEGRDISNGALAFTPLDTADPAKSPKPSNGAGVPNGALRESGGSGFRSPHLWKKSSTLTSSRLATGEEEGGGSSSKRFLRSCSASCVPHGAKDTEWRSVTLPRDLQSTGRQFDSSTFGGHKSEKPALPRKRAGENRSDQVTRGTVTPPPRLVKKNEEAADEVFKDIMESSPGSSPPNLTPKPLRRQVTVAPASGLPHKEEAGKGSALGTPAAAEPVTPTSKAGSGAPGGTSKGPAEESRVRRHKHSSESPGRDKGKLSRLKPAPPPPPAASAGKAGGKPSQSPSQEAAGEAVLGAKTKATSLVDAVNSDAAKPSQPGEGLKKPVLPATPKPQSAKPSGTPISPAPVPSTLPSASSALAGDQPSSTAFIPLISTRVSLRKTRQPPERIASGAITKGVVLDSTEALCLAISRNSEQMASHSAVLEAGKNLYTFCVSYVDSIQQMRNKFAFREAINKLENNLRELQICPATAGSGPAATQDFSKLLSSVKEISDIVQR

[4] = target: Proto-oncogene tyrosine-protein kinase Src (Homo sapiens, UniProt P12931); experiment: Inhibition of human N-terminal GST-tagged full length human Src (Met1 to Leu536 residues) expressed in baculovirus expression system assessed as decrease in biotin signal transduction protein phosphorylation at Tyr160 preincubated for 5 mins followed by substrate addition measured after 30 mins by DELFIA method
Chain of Proto-oncogene tyrosine-protein kinase Src (P12931 2-536 limits assumed): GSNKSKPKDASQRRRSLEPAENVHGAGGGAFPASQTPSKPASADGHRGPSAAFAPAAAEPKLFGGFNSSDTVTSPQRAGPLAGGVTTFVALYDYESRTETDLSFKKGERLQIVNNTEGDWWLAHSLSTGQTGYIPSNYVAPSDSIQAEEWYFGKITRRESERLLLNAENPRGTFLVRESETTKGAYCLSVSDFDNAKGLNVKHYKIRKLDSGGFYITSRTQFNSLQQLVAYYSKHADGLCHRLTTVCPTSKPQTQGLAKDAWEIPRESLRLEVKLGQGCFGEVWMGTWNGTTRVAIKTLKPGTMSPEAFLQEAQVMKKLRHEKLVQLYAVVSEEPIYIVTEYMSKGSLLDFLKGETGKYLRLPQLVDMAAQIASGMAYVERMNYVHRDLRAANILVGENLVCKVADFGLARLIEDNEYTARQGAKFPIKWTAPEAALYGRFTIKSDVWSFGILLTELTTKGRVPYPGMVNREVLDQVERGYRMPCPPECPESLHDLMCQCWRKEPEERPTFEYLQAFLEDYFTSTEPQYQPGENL

[5] = Cytotoxicity against human CFPAC cells assessed as growth inhibition by measuring ATP levels after 72 hrs by ATPlite assay; type: functional, cell-based
[6] = target: Serine/threonine-protein kinase B-raf (Homo sapiens, UniProt P15056); experiment: Inhibition of N-terminal GST-tagged recombinant human B-Raf ([…] residues) expressed in baculovirus infected Sf21 insect cells using MEK1 as substrate preincubated for 5 mins followed by substrate addition measured after 30 mins by DELFIA
[7] = target: Vascular endothelial growth factor receptor 2 (Homo sapiens, UniProt P35968); experiment: Inhibition of N-terminal GST-His6-thrombin cleavage site-fused human VEGFR2 (Asp805 to Val1356 residues) expressed in baculovirus expression system using biotinylated gastrin precursor at Tyr87 as substrate preincubated for 5 mins followed by substrate addition measured after 30 mins by DELFIA method
[8] = target: Receptor tyrosine-protein kinase erbB-2 (Homo sapiens, UniProt P04626); experiment: Inhibition of N-terminal GST-tagged human HER2 (Lys676 to Val1255 residues) expressed in baculovirus expression system using biotinylated FLT3 at Tyr589 as substrate preincubated for 5 mins followed by substrate addition measured after 30 mins by DELFIA method
Chain of Receptor tyrosine-protein kinase erbB-2 (P04626 whole entry): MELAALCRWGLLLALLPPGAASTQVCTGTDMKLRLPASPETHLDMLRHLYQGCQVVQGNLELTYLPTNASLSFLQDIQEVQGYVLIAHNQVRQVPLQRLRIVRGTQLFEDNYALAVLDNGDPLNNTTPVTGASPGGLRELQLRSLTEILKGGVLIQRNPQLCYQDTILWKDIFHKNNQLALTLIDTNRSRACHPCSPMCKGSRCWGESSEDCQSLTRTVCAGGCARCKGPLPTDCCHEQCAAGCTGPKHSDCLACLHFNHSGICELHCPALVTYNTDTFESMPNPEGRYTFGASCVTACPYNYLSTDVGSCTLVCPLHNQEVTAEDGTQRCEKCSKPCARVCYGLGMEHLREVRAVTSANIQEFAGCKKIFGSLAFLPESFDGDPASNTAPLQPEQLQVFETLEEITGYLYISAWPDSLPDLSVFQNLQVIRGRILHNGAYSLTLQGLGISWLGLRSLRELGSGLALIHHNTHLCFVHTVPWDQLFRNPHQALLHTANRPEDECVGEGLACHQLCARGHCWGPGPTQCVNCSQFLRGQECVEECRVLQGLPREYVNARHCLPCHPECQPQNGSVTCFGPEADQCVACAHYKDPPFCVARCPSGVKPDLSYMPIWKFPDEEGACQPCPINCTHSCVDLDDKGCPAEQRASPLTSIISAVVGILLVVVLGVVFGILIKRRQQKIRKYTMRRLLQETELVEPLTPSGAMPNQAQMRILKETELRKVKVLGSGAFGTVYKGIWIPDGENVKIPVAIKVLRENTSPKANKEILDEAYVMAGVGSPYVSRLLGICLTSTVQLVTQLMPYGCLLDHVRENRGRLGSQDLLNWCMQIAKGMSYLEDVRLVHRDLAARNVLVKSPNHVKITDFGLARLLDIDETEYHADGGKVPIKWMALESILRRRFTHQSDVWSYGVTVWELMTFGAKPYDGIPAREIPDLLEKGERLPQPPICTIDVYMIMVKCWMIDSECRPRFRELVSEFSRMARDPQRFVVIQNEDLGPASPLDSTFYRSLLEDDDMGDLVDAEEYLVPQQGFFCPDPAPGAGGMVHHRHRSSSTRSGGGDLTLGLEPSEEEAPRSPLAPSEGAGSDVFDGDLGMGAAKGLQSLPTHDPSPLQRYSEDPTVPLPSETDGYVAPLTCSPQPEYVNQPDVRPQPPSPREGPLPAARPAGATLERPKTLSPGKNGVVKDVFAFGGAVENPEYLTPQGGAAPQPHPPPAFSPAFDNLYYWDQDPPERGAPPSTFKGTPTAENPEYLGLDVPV

[9] = target: Cyclin-dependent kinase 2/cyclin E1 (Homo sapiens, UniProt P24941); experiment: Inhibition of C-terminal His6-tagged full length CDK2/N-terminal GST-tagged recombinant full length human cyclin E1 expressed in baculovirus infected SF21 insect cells using histone H1 as substrate after 2 hrs in presence of [gamma-33P]-ATP
HCT-116 [10] = experiment: Induction of apoptosis in human HCT116 cells assessed as increase in caspase3/7 activity after 24 hrs; type: functional, cell-based; conditions: HCT-116, 24 h
SK-BR-3 = experiment: Induction of apoptosis in human SKBR3 cells assessed as increase in caspase3/7 activity after 24 hrs; type: functional, cell-based; conditions: SK-BR-3, 24 h
CDK6/cyclin D3 = CDK6/cyclin D3 (Homo sapiens, UniProt Q00534); experiment: Inhibition of N-terminal His6-tagged full length human CDK6/N-terminal GST-tagged recombinant full length human cyclin D3 expressed in baculovirus infected SF21 insect cells using histone H1 as substrate after 2 hrs in presence of [gamma-33P]-ATP
Chain of CDK6/cyclin D3 (P30281 whole entry): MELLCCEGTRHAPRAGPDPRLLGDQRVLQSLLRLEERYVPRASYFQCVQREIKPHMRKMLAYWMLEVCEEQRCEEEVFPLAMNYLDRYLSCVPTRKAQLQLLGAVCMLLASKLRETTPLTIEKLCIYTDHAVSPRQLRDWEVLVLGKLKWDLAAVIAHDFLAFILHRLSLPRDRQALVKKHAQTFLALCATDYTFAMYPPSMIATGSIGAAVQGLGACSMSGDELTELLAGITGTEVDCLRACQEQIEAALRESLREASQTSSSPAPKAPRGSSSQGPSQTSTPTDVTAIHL
Chain of CDK6/cyclin D3 (Q00534 whole entry): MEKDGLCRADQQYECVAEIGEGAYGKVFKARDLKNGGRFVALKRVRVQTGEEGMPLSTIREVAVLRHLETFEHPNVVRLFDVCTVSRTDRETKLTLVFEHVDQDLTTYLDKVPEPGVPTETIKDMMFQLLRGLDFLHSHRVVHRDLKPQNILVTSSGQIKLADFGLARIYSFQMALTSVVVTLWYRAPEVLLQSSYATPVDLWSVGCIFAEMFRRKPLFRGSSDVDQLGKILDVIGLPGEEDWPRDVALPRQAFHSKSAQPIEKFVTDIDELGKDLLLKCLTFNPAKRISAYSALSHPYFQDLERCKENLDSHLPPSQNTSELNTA

[11] = Chemical stability in diluted solution; type: physicochemical
NCI-H292 = experiment: Antitumor activity against human NCI-H292 cells xenografted in nu/nu athymic mouse assessed as tumor growth inhibition at 15 to 60 mg/kg, iv as 2 mins infusion administered via 7 days on 7 days off and 5 days on regimen measured twice weekly during compound dosing; type: functional, organism-based
NCI-H358 = experiment: Antitumor activity against human NCI-H358 cells xenografted in nu/nu athymic mouse assessed as tumor growth inhibition at 15 to 60 mg/kg, iv as 2 mins infusion administered via 7 days on 7 days off and 5 days on regimen measured twice weekly during compound dosing; type: functional, organism-based
HPAC = experiment: Antitumor activity against human HPAC cells xenografted in nu/nu athymic mouse assessed as tumor growth inhibition at 120 mg/kg, iv or ip administered in 30% captisol; type: functional, organism-based
PC-3 = experiment: Antitumor activity against human PC3 cells xenografted in nu/nu athymic mouse assessed as tumor growth inhibition at 10 to 40 mg/kg, iv as 2 mins infusion administered via 7 days on 7 days off and 5 days on regimen measured twice weekly during compound dosing; type: functional, organism-based
HCT-116 [12] = experiment: Antitumor activity against human HCT116 cells xenografted in nu/nu athymic mouse assessed as tumor growth inhibition at 15 to 60 mg/kg, iv as 2 mins infusion administered via 5 days on 2 days off and 5 days on regimen measured twice weekly during compound dosing; type: functional, organism-based
BXPC-3 = experiment: Antitumor activity against human BxPC3 cells xenografted in nu/nu athymic mouse assessed as tumor growth inhibition at 10 to 40 mg/kg, iv as 2 mins infusion administered via 7 days on 7 days off and 2 days on regimen measured twice weekly during compound dosing; type: functional, organism-based
A-431 = experiment: Antitumor activity against human A431 cells xenografted in nu/nu athymic mouse assessed as tumor growth inhibition at 6 to 48 mg/kg, ip qd administered for 21 days measured twice weekly during compound dosing; type: functional, organism-based
[13] = Antitumor activity against human A549 cells xenografted in nu/nu athymic mouse assessed as increase in tumor size at 120 mg/kg administered in 30% captisol after 24 hrs (reference value: 240%); type: functional
[14] = Toxicity in CD1 mouse assessed as change in body weight up to 200 mg/kg, iv administered as single dose in 30% captisol measured over 9 days; type: organism-based; conditions: in vivo, 216 h
[15] = Toxicity in CD1 mouse assessed as change in body weight up to 100 mg/kg, ip administered as repeated dosing in 30% captisol measured over 7 days; type: organism-based; conditions: in vivo, 168 h
[16] = Toxicity in Sprague-Dawley rat assessed as change in body weight up to 200 mg/kg, ip administered as single dose in 30% captisol measured over 8 days; type: organism-based; conditions: in vivo, 192 h
[17] = target: Epidermal growth factor receptor (Homo sapiens, UniProt P00533); experiment: Inhibition of N-terminal GST-fused human EGFR (His672 to Ala1210 residues) expressed in baculovirus expression system using biotinylated PTP1B at Tyr66 as substrate preincubated for 5 mins followed by substrate addition measured after 30 mins by DELFIA

Cc1nc(Nc2ncc(C(=O)Nc3c(C)cccc3Cl)s2)cc(N2CCN(CCCCCCC(=O)NO)CC2)n1
IC50 [1]: ≤ 100 nM | IC50 [2]: ≤ 100 nM | IC50 [3]: ≤ 100 nM | IC50 [4]: ≤ 100 nM

COc1cc2ncnc(N[C@H](C)c3ccccc3)c2cc1OCCCCCC(=O)NO
IC50 [5]: 1000 to 10000 nM

Cc1nc(Nc2ncc(C(=O)Nc3c(C)cccc3Cl)s2)cc(N2CCN(CCCCCC(=O)NO)CC2)n1
IC50 [1]: ≤ 100 nM | IC50 [2]: ≤ 100 nM | IC50 [3]: ≤ 100 nM | IC50 [4]: ≤ 100 nM

O=C(CCCCCNC(=O)c1cc(Oc2ccc(NC(=O)Nc3ccc(Cl)c(C(F)(F)F)c3)cc2)ccn1)NO
IC50 [6]: 1000 to 10000 nM | IC50 [1]: 100 to 1000 nM | IC50 [2]: ≤ 100 nM | IC50 [7]: ≤ 100 nM

COCCOc1cc2ncnc(Nc3ccc(F)c(Cl)c3)c2cc1NC(=O)CCCCCCC(=O)NO
IC50 [5]: 1000 to 10000 nM | IC50 [8]: ≤ 100 nM

O=C(CCCCCCCNC(=O)c1cc(Oc2ccc(NC(=O)Nc3ccc(Cl)c(C(F)(F)F)c3)cc2)ccn1)NO
IC50 [1]: 100 to 1000 nM | IC50 [2]: ≤ 100 nM | IC50 [7]: 100 to 1000 nM

Cc1nc(Nc2ncc(C(=O)Nc3c(C)cccc3Cl)s2)cc(N2CCN(CC(=O)NO)CC2)n1
IC50 [1]: ≤ 100 nM | IC50 [3]: ≤ 100 nM | IC50 [4]: ≤ 100 nM

CC(C)(C)c1cnc(CSc2cnc(NC(=O)CCCCCCC(=O)NO)s2)o1
IC50 [9]: ≤ 100 nM

COc1cc2ncnc(Nc3ccc(F)c(Cl)c3)c2cc1NC(=O)CCCCCCC(=O)NO
IC50 [5]: 1000 to 10000 nM | IC50 [8]: 100 to 1000 nM

Cc1[nH]c(/C=C2\C(=O)Nc3ccc(F)cc32)c(C)c1C(=O)NCCCCCC(=O)NO
IC50 [1]: ≤ 100 nM | IC50 [7]: ≤ 100 nM

C#Cc1cccc(Nc2ncnc3cc(OCCOC)c(OCCOC)cc23)c1 [ERLOTINIB]
IC50 (HCT-116 [10]): > 20000 nM | IC50 (SK-BR-3): > 20000 nM

Cc1nc(Nc2ncc(C(=O)Nc3c(C)cccc3Cl)s2)cc(N2CCN(CCCCC(=O)NO)CC2)n1
IC50 [1]: ≤ 100 nM | IC50 [3]: ≤ 100 nM | IC50 [4]: ≤ 100 nM

CC(C)(C)c1cnc(CSc2cnc(NC(=O)CCCCC(=O)NO)s2)o1
IC50 (CDK6/cyclin D3): 100 to 1000 nM | IC50 [9]: ≤ 100 nM

C#Cc1cccc(Nc2ncnc3cc(OC)c(OCCCCCCC(=O)N[O-])cc23)c1.[Na+]
Stability [11]: > 12 h

C#Cc1cccc(Nc2ncnc3cc(OC)c(OCCCCCCC(=O)NO)cc23)c1
TGI (NCI-H292): Active | TGI (NCI-H358): Active | TGI (HPAC): Active | TGI (PC-3): Active | TGI (HCT-116 [12]): Active | TGI (BXPC-3): Active | TGI (A-431): Active

Cc1nc(N)cc(N(CC(=O)NO)c2ncc(C(=O)Nc3c(C)cccc3Cl)s2)n1
IC50 [3]: 100 to 1000 nM | IC50 [4]: 100 to 1000 nM

CC(C)(C)c1cnc(CSc2cnc(NC(=O)Cc3ccc(OCCCCC(=O)NO)cc3)s2)o1
IC50 [9]: ≤ 100 nM

Cc1[nH]c(/C=C2\C(=O)Nc3ccc(F)cc32)c(C)c1C(=O)NCCCCCCCC(=O)NO
IC50 [1]: 100 to 1000 nM | IC50 [7]: ≤ 100 nM

CC(C)(C)c1cnc(CSc2cnc(NC(=O)CCCCCC(=O)NO)s2)o1
IC50 (CDK6/cyclin D3): 100 to 1000 nM | IC50 [9]: ≤ 100 nM

CC(C)(C)c1cnc(CSc2cnc(NC(=O)CCCC(=O)NO)s2)o1
IC50 (CDK6/cyclin D3): 100 to 1000 nM | IC50 [9]: ≤ 100 nM

CC(C)(C)c1cnc(CSc2cnc(NC(=O)Cc3ccc(OCCCC(=O)NO)cc3)s2)o1
IC50 [9]: ≤ 100 nM

O=C(CCCCCCC(=O)NCc1cc(Oc2ccc(NC(=O)Nc3ccc(Cl)c(C(F)(F)F)c3)cc2)ccn1)NO
IC50 [1]: 100 to 1000 nM | IC50 [2]: ≤ 100 nM | IC50 [7]: ≤ 100 nM

Cc1nc(NCCCCCCC(=O)NO)cc(Nc2ncc(C(=O)Nc3c(C)cccc3Cl)s2)n1
IC50 [1]: ≤ 100 nM | IC50 [2]: ≤ 100 nM | IC50 [3]: ≤ 100 nM | IC50 [4]: ≤ 100 nM

Cc1nc(NCCNCC(=O)NO)cc(Nc2ncc(C(=O)Nc3c(C)cccc3Cl)s2)n1
IC50 [3]: ≤ 100 nM | IC50 [4]: ≤ 100 nM

Cc1[nH]c(/C=C2\C(=O)Nc3ccc(F)cc32)c(C)c1C(=O)NCCCCCCC(=O)NO
IC50 [1]: 100 to 1000 nM | IC50 [7]: ≤ 100 nM

C#Cc1cccc(Nc2ncnc3cc(OC)c(OCCCCCCC(=O)NO)cc23)c1 [CUDC-101]
IC50 (HCT-116 [10]): 170 nM | Activity [13]: 150% | IC50 [5]: 100 to 1000 nM | Activity [14]: Non-Toxic | Activity [15]: Non-Toxic | Activity [16]: Non-Toxic | IC50 (SK-BR-3): 920 nM

O=C(CCCCCCOc1ccc2ncnc(Nc3ccc(F)c(Cl)c3)c2c1)NO
IC50 [5]: 100 to 1000 nM | IC50 [8]: 100 to 1000 nM

Cc1[nH]c(/C=C2\C(=O)Nc3ccc(F)cc32)c(C)c1C(=O)NCCCC(=O)NO
IC50 [1]: ≤ 100 nM | IC50 [7]: ≤ 100 nM

O=C(CCCCC(=O)NCc1cc(Oc2ccc(NC(=O)Nc3ccc(Cl)c(C(F)(F)F)c3)cc2)ccn1)NO
IC50 [1]: 100 to 1000 nM | IC50 [2]: ≤ 100 nM | IC50 [7]: ≤ 100 nM

Cc1nc(NCCCCCC(=O)NO)cc(Nc2ncc(C(=O)Nc3c(C)cccc3Cl)s2)n1
IC50 [1]: ≤ 100 nM | IC50 [2]: ≤ 100 nM | IC50 [3]: ≤ 100 nM | IC50 [4]: ≤ 100 nM

COc1cc2ncnc(NCc3ccccc3)c2cc1OCCCCCCC(=O)NO
IC50 [5]: 1000 to 10000 nM

COc1cc2ncnc(Nc3ccc(F)c(Cl)c3)c2cc1OCCOc1ccc(/C=C/C(=O)NO)cc1
IC50 [5]: ≥ 10000 nM | IC50 [17]: ≤ 100 nM

Cc1nc(Nc2ncc(C(=O)Nc3c(C)cccc3Cl)s2)cc(N2CCN(CCCC(=O)NO)CC2)n1
IC50 [3]: ≤ 100 nM | IC50 [4]: ≤ 100 nM
